Data published in paper PMC5896744 (The Biochemical journal, 2017).

Key:
Assay in all cases: SPR solution competition
Type in all cases: binding
PKA hRIα CNB-B (234–381) [1] = target: PKA hRIα CNB-B (234–381) (Homo sapiens, UniProt P10644, A336T/G316R)
PKA hRIα CNB-A (115–274) [2] = target: PKA hRIα CNB-A (115–274) (Homo sapiens, UniProt P10644, T192R)
PKA hRIα CNB-B (234–381) [3] = target: PKA hRIα CNB-B (234–381) (Homo sapiens, UniProt P10644, A336T/G316R/V315L)
PKA hRIα CNB-B (234–381) [4] = target: PKA hRIα CNB-B (234–381) (Homo sapiens, UniProt P10644, G316R)
PKA hRIα CNB-B (234–381) [5] = target: PKA hRIα CNB-B (234–381) (Homo sapiens, UniProt P10644, V315L)
PKA hRIα CNB-A (115–274) [6] = target: PKA hRIα CNB-A (115–274) (Homo sapiens, UniProt P10644, A212T)
PKA hRIα CNB-B (234–381) [7] = target: PKA hRIα CNB-B (234–381) (Homo sapiens, UniProt P10644, G316R/V315L)
PKA hRIα CNB-B (234–381) [8] = target: PKA hRIα CNB-B (234–381) (Homo sapiens, UniProt P10644, A336T)
PKA hRIα CNB-A (115–274) [9] = target: PKA hRIα CNB-A (115–274) (Homo sapiens, UniProt P10644, A212T/T192R)
PKA hRIα CNB-B (234–381) [10] = target: PKA hRIα CNB-B (234–381) (Homo sapiens, UniProt P10644)
PKA hRIα CNB-A (115–274) [11] = target: PKA hRIα CNB-A (115–274) (Homo sapiens, UniProt P10644)

SMILES | EC50 (PKA hRIα CNB-B (234–381) [1]) [nM] | EC50 (PKA hRIα CNB-A (115–274) [2]) [nM] | EC50 (PKA hRIα CNB-B (234–381) [3]) [nM] | EC50 (PKA hRIα CNB-B (234–381) [4]) [nM] | EC50 (PKA hRIα CNB-B (234–381) [5]) [nM] | EC50 (PKA hRIα CNB-A (115–274) [6]) [nM] | EC50 (PKA hRIα CNB-B (234–381) [7]) [nM] | EC50 (PKA hRIα CNB-B (234–381) [8]) [nM] | EC50 (PKA hRIα CNB-A (115–274) [9]) [nM] | EC50 (PKA hRIα CNB-B (234–381) [10]) [nM] | EC50 (PKA hRIα CNB-A (115–274) [11]) [nM]
Nc1nc2c(ncn2[C@@H]2O[C@@H]3COP(=O)(O)O[C@H]3[C@H]2O)c(=O)[nH]1 [cGMP] | 0.4 ± 0.1 | 1530 ± 53 | 0.6 ± 0.3 | 98 ± 41 | 678 ± 100 | 83 ± 33 | 66 ± 2 | 2 ± 0.1 | 24 ± 5 |  | 
O=c1[nH]cnc2c1ncn2[C@@H]1O[C@@H]2COP(=O)(O)O[C@H]2[C@H]1O [cIMP] |  | 156 ± 5 |  | 25 ± 9 |  |  |  |  |  | 114 ± 51 | 273 ± 16
